Literature values, collected in patent US20240423961A1, “1H-1,2,3-TRIAZOLE-4-CARBOXYLIC ACIDS FOR TREATMENT OF HYPEROXALURIA AND KIDNEY STONES” (CANTERO THERAPEUTICS, INC., priority 2021, published 2024).
Where “and” joins values, the source holds several entries; their conditions need not be identical. Identical values can stand only once. Like-named read-outs stand apart in the source and are kept apart here.

Test system: glycolate oxidase (GO)
Details: cited from earlier work

Substance: lumasiran
- measured peak plasma glycolate relative to baseline levels (single subcutaneous dose 0.3 mg/kg): ~1.6 fold
- measured peak plasma glycolate relative to baseline levels (single subcutaneous dose 1.0 mg/kg): ~2.5 fold
- measured peak plasma glycolate relative to baseline levels (single subcutaneous dose 3.0 mg/kg, 3 mg/kg): ~3.1 fold and ~3 fold
- measured peak plasma glycolate relative to baseline levels (single subcutaneous dose 6.0 mg/kg): ~7.3 fold
